The record followed here is PubChem BioAssay (NCI).

The structures appear in SMILES notation.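 Grown in 96-well plates, cells were treated for 48 hours with each compound at five concentrations. Insufficient inhibition: endpoint recorded as highest concentration tested. TGI denotes the concentration required for complete inhibition of growth.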

Among the test systems are 786-0 renal; BT-549 breast; COLO 205 colon; DU-145 prostate; HOP-92 NSCLC; MALME-3M melanoma; MOLT-4 leukemia; NCI-H23 lung; NCI-H522 lung; NCI/ADR-RES ovarian; OVCAR-5 ovarian; OVCAR-8 ovarian; RPMI-8226 leukemia; SK-OV-3 ovarian; SW-620 colon; UACC-257 melanoma; SF-295 CNS; SNB-19 CNS; T-47D breast.
Holding throughout (assay): growth of human tumour cells (NCI), 48 h

On to `O=[N+]([O-])/C=C/c1cn(CCCCCCCCCCCCn2cc(/C=C/[N+](=O)[O-])c3ccccc32)c2ccccc12`, for which the TGI in the assay with 786-0 renal, in the assay on BT-549 breast, with COLO 205 colon, with DU-145 prostate, with HOP-92 NSCLC and in the assay with MALME-3M melanoma was greater than 100 µM each time. Also, the TGI in the assay on MOLT-4 leukemia, with NCI-H23 lung, in the assay with NCI-H522 lung, in the assay with NCI/ADR-RES ovarian, with OVCAR-5 ovarian and with OVCAR-8 ovarian was greater than 100 µM each time. In addition, the TGI in the assay with RPMI-8226 leukemia, in the assay with SK-OV-3 ovarian, in the assay on SW-620 colon and in the assay on UACC-257 melanoma was greater than 100 µM in each case.
Consider `O=c1ccc2ccccc2c2ccccc12`, for which the TGI in the assay with 786-0 renal is 10.1 µM; in the assay with COLO 205 colon, 18.3 µM; in the assay on MALME-3M melanoma, 22.3 µM; in the assay with MOLT-4 leukemia, 20.3 µM; in the assay on NCI-H23 lung it was 6.33 µM; with NCI-H522 lung, 11.2 µM. Moreover, the TGI is 6.7 µM in the assay with OVCAR-5 ovarian; 4.61 µM in the assay with OVCAR-8 ovarian; 7.83 µM in the assay on RPMI-8226 leukemia; 13.3 µM in the assay with SF-295 CNS; 13 µM in the assay with SK-OV-3 ovarian; 8.73 µM with SNB-19 CNS. In addition, the results for the TGI with SW-620 colon and with UACC-257 melanoma were 10.9 µM and 16.6 µM, respectively.
In the case of `CNC(=O)N1N[C@H](c2ccccc2)[C@@H]1c1ccccc1`, the TGI in the assay on 786-0 renal was greater than 100 µM; with BT-549 breast, 40.9 µM; in the assay with COLO 205 colon, 38.8 µM; with HOP-92 NSCLC, 91.2 µM; with MALME-3M melanoma, 72.6 µM; with MOLT-4 leukemia it was 71.1 µM. Moreover, the TGI with NCI-H23 lung was 47.9 µM; in the assay on NCI/ADR-RES ovarian it was 36.6 µM; in the assay on OVCAR-5 ovarian, greater than 100 µM; with OVCAR-8 ovarian it was 29.9 µM; in the assay with SF-295 CNS, 41.2 µM; in the assay on SK-OV-3 ovarian it was 91.2 µM. Also, the values for the TGI with SNB-19 CNS, in the assay on SW-620 colon and in the assay with UACC-257 melanoma were greater than 100 µM, 77.7 µM and greater than 100 µM, respectively.
Take `Cc1ccc(S(=O)(=O)NC(=O)Nc2cc(Cl)c(S(N)(=O)=O)cc2S(N)(=O)=O)cc1`: the TGI in the assay on 786-0 renal, in the assay on BT-549 breast, in the assay with COLO 205 colon, in the assay on DU-145 prostate, with HOP-92 NSCLC and in the assay on MALME-3M melanoma was greater than 100 µM throughout. Besides, the TGI in the assay with MOLT-4 leukemia, with NCI-H23 lung, with NCI-H522 lung, with NCI/ADR-RES ovarian, with OVCAR-5 ovarian and in the assay with OVCAR-8 ovarian was greater than 100 µM in each case. In addition, the TGI with RPMI-8226 leukemia, with SF-295 CNS, in the assay with SK-OV-3 ovarian, in the assay with SNB-19 CNS, in the assay on SW-620 colon and in the assay on UACC-257 melanoma was greater than 100 µM throughout.
Turning to `Nc1ccc(-c2nc3ccc(F)cc3s2)cc1I`, the TGI with 786-0 renal, in the assay on BT-549 breast, in the assay with COLO 205 colon, in the assay with DU-145 prostate, in the assay with HOP-92 NSCLC and with MALME-3M melanoma was greater than 100 µM throughout. Also, the TGI with MOLT-4 leukemia, in the assay on NCI-H23 lung, in the assay on NCI-H522 lung, in the assay on NCI/ADR-RES ovarian, in the assay on OVCAR-5 ovarian and with OVCAR-8 ovarian was greater than 100 µM throughout. Moreover, the TGI with RPMI-8226 leukemia, with SF-295 CNS, in the assay on SK-OV-3 ovarian, in the assay on SNB-19 CNS, in the assay with SW-620 colon and in the assay on UACC-257 melanoma was greater than 100 µM throughout.
Take `Nc1nc2ncn(CC(O)CO)c2c(=O)[nH]1` (configuration not stated): the TGI with 786-0 renal, in the assay with COLO 205 colon, with HOP-92 NSCLC, with MALME-3M melanoma, with NCI-H522 lung and in the assay on OVCAR-5 ovarian was greater than 100 µM throughout. The TGI with OVCAR-8 ovarian, in the assay on RPMI-8226 leukemia, with SF-295 CNS, with SK-OV-3 ovarian, in the assay on SNB-19 CNS and in the assay with SW-620 colon was greater than 100 µM each time. Besides, the TGI in the assay with UACC-257 melanoma is greater than 100 µM.
As to `COc1cc(-c2cc(=O)c3ccccc3[nH]2)cc(OC)c1OC`, the TGI with 786-0 renal, with COLO 205 colon, with MALME-3M melanoma, with MOLT-4 leukemia, in the assay on NCI-H23 lung and in the assay with NCI-H522 lung was greater than 75 µM each time. Also, the TGI in the assay on OVCAR-8 ovarian, in the assay on RPMI-8226 leukemia, in the assay on SF-295 CNS, with SK-OV-3 ovarian, with SNB-19 CNS and with SW-620 colon was greater than 75 µM in each case. In addition, the TGI in the assay with UACC-257 melanoma is greater than 75 µM.
Regarding `C=C(C)CCC1CC=[N+]([O-])OC1C(C)(C)C` (configuration not stated), the TGI in the assay with 786-0 renal was greater than 100 µM; in the assay on COLO 205 colon, greater than 100 µM; in the assay with DU-145 prostate it was greater than 100 µM; in the assay with HOP-92 NSCLC, greater than 100 µM; with MOLT-4 leukemia, greater than 100 µM; with NCI-H522 lung, 58.5 µM. Moreover, the TGI in the assay with NCI/ADR-RES ovarian is 67.3 µM; in the assay with OVCAR-5 ovarian, greater than 100 µM; in the assay on OVCAR-8 ovarian, greater than 100 µM; with RPMI-8226 leukemia, greater than 100 µM; in the assay on SF-295 CNS it was greater than 100 µM; in the assay on SK-OV-3 ovarian, greater than 100 µM. Further, the TGI with SW-620 colon is greater than 100 µM; with T-47D breast, 90.1 µM; with UACC-257 melanoma, greater than 100 µM.
As to `CC(=O)Nc1ccc(S(=O)(=O)NN(C)S(=O)(=O)c2ccc(C)cc2)cc1`, the TGI in the assay with 786-0 renal, in the assay with COLO 205 colon, in the assay on HOP-92 NSCLC, in the assay with MALME-3M melanoma, with MOLT-4 leukemia and in the assay with NCI-H23 lung was greater than 100 µM each time. The TGI in the assay on NCI-H522 lung, with OVCAR-5 ovarian, in the assay on OVCAR-8 ovarian, in the assay with RPMI-8226 leukemia, in the assay with SF-295 CNS and in the assay on SK-OV-3 ovarian was greater than 100 µM throughout. In addition, the TGI in the assay with SNB-19 CNS, in the assay on SW-620 colon and with UACC-257 melanoma was greater than 100 µM throughout.
